Measured values taken from the NIST ThermoML archive (doi:10.1021/je049585t).
± gives the expanded uncertainty stated by the source.

What was measured:
[1] = Crystal
[2] = Molar enthalpy of transition or fusion; conditions: Crystal

Normal melting temperature [1]: 62.39 ± 0.83 °C
Molar enthalpy of transition or fusion [2]: 4.223 ± 0.0239 kcal/mol
Structure (SMILES): CC1=CCC2C(=O)OC(=O)C2C1 (configuration not stated) [4-methyl-cyclohex-4-ene-1, 2-dicarboxylic acid anhydride]
